Results as given in patent publication US12097203B2, “Combination therapies comprising SHP2 inhibitors and PD-1 inhibitors” (HUYABIO International, LLC, priority 2021, dated 2024).

Test system: MC38 tumor
Assay: Cytokine detection assay (V-Plex Proinflammatory Panel 1 Mouse Kit) in MC38 tumor bearing animals
Assay type: in vivo, mice
Conditions: MC38 tumor model, plasma from tumor bearing animals 2 hours post last dose
Excerpt: Reagents: GH21001 (TNO-155), GH21005 (compound of Formula Ia) were supplied by HUYA Biosciences, USA, RMC-4550 was purchased from MCE, China. Osimertinib was purchased from Selleck, China. Cisplatin was purchased from Qilu Pharma, China. Anti-PD-1 (RMP1-14) and Rat IgG2a antibodies were purchased from BioXCell (China).
All cell lines were maintained in culture and cells in exponential growth phase were harvested and quantitated by cell counter before tumor inoculation. MC38 tumor cells (1×10^6) in 0.1 ml of PBS were inoculated into the right front flank of female C57/Bl animals, mean tumor size approximately 112 mm^3 at the start of treatment.
The date of randomization and treatment initiation was denoted as day 0. Tumor volumes were measured twice per week in two dimensions using a caliper, and the volume will be expressed in mm3 using the formula: V=(L×W×W)/2, where V is tumor volume, L is tumor length (the longest tumor dimension) and W is tumor width (the longest tumor dimension perpendicular to L). Dosing volume was 10 mL/kg/day. […]
Cytokine detection assay: V-Plex Proinflammatory Panel 1 Mouse Kit (Mesoscale Discovery) was used to determine cytokine levels in plasma isolated from tumor bearing animals 2 hours post last dose. Plasma from tumor bearing animals was analyzed as described by the manufacture's guidelines. […]

C[C@@H]1OCC2(CCN(c3cnc(Sc4cccc(NC(=O)c5c(O)nc6n(c5=O)CCCC6)c4Cl)cn3)CC2)[C@@H]1N [compound of Formula (Ia), N-(3-((5-((3S,4S)-4-amino-3-methyl-2-oxa-8-azaspiro[4.5]decan-8-yl)pyrazin-2-yl)thio)-2-chlorophenyl)-2-hydroxy-4-oxo-6,7,8,9-tetrahydro-4H-pyrido[1,2-a]pyrimidine-3-carboxamide] was tested, and the KC/GRO level (FIG. 2A) was “slight decreases” and the TNF-alpha level (FIG. 2B) was “slight decreases”.
